Earlier results on one compound are cited in US20030199496A1, “Pharmaceutical compositions containing alpha3beta4 nicotinic receptor antagonists and methods of their use” (priority 2002, published 2003).

For this data set, the system named is Purkinje nerve cells.

For the compound `COCC[C@H]1CC2CN3CCc4c([nH]c5ccccc45)[C@](C(=O)OC)(C2)[C@H]13` [18-MC, 18-methoxycoronaridine], the “neurotoxicity, especially on Purkinje nerve cells” value (at certain doses) was “devoid of these undesirable characteristics”. In addition, the tremors entry (human and animal subjects) was “devoid of these undesirable characteristics”.
